Measurements reported in US20080132500A1, “Antibiotic compounds” (priority 2006, published 2008).
Values after ≈ are worked out from the molar mass of the structure shown. Like-named read-outs stand apart in the source and are kept apart here.

Experiments:
Test in all cases: Microbroth dilution MIC
Assay type in all cases: cell-based
[1] = system: Enterococcus Faecalia CLB 21560
Method: (§1) Cation-Adjusted Mueller Hinton Broth (BBL): Prepared according to manufacturer's instructions (22 gms dissolved in 1000 mL water; autoclaved 22 minutes). Stored refrigerated. Filter-sterilized before use using a Coming 0.45 Tm cellulose acetate filter.
(§2) The type of strains listed above can be obtained from publicly available sources. The strain of Haemophilus influenzae used in to assay the compound of this invention is a mouse pathogen used for in vivo testing at Merck. The Escherichia coli strain used in to assay the compound of this invention is a cell wall permeable strain. The Candida albicans strain is used as a control. These culture are maintained as frozen stocks at −80° C. in a) Microbank beads; b) 2× Skim Milk; or c) in 2× X Trypticase Soy Broth+15% glycerol/50% horse serum (Haemophilus and Streptococcus pneumoniae).
(§3) Selected isolates are sub-cultured onto either Chocolate Agar Plates (Haemophilus influenzae), onto Trypticase Soy+5% Sheep Blood Agar Plates (Streptococcus pneumoniae, Staphylococcus aureus, Escherichia coli, Enterococcus, Bacillus) or onto Sabouraud Dextrose Agar (Candida) and incubated at 35° C. Haemophilus and Streptococcus pneumoniae are incubated in 5% CO2; all other isolates are incubated in ambient air. Isolates are sub-cultured 2× before assay.
(§4) Colonies are selected from plates and used to prepare an inoculum equivalent to a 0.5 McFarland standard in Trypticase Soy Broth. An inoculum with a density equivalent to a 1.0 McFarland standard is prepared for Streptococcus pneumoniae. The inoculum density for all cultures is ˜10^8 CFU/mL in TSB. This TSB inoculum is diluted 1:10 in sterile saline (4 mL inoculum+36 mL saline; equivalent to ˜10^7 CFU/mL) and kept on ice until used to inoculate microtiter plates.
(§5) All wells of 96-well microtiter plates (Dynex) are filled with 100 TL media. Haemophilus test media plates are prepared to test Haemophilus influenzae; Cation-Adjusted Mueller Hinton+5% Lysed Horse Blood plates are prepared to test Streptococcus pneumoniae; Cation-Adjusted Mueller Hinton Broth plates are prepared to test Enterococcus, Staphylococcus aureus, Escherichia coli and Bacillus subtilis. RPMI 1640 is used to test Candida. The MICs against S. aureus Smith are determined in Cation-adjusted Mueller Hinton and in Cation-Adjusted Mueller Hinton+50% Human Serum, to determine if the compound is inactivated by some component in serum (indicated by an increase in the MIC). Filled plates are wrapped in plastic bags (to minimize evaporation), stored frozen and thawed before use.
(§6) The compounds are prepared on a weight basis. Compounds are prepared to 2-10 mg/mL in 100% DMSO, then diluted to 1 mg/mL in a 1:1 dilution of DMSO/233 CAMHB (final concentration=50% DMSO/50% CAMHB). Compounds are serially diluted 1:1 in 50% DMSO/50% CAMHB in BD Biosciences Deep Well Polypropylene 96 well plates (starting concentration 1-5 mg/mL).
(§7) Using a Finn Automated Multichannel Pipette, (0.5-10 μL volume) 6.4 TLs of antimicrobial working solutions are added to wells of filled microtiter plates (concentration of antimicrobial in first well=512-64 microg/mL; concentration of DMSO=3.2%). Antimicrobials are added in this manner to keep constant the amount of DMSO in each well (to keep compounds solubilized and to account for the possibility of non-specific killing by the DMSO. The last row contains a growth control of 3.2% DMSO.
(§8) Controls (Penicillin G and chloramphenicol) are run with each assay. The controls are prepared in the same manner as described for the compounds of the invention. Ertapenem is included as a control for the serum protein binding assay.
(§9) Plates are incubated at 35° C. in ambient air. An uninoculated plate is also incubated as a sterility check. Results are recorded after 22-24-hours' incubation. Plates were read to no growth.

[2] = system: Staphylococcus Aureus CL 5814; settings: Staphylococcus Aureus strain CL 5814
Method: as §1, §2, §3, §4, §5, §6, §7, §8, §9

[3] = system: Staphylococcus Aureus CL 8260; settings: Staphylococcus Aureus strain CL 8260
Method: as §1, §2, §3, §4, §5, §6, §7, §8, §9

[4] = system: Staphylococcus Aureus MB 2865; settings: Staphylococcus Aureus strain MB 2865
Method: as §1, §2, §3, §4, §5, §6, §7, §8, §9

MIC ([1]; Enterococcus Faecalia strain CLB 21560, read-out: MIC) | Compound | MIC ([1]; Enterococcus) | MIC [2] | MIC [3] | MIC [4]
– | CO/C(C)=C1/NC(=O)[C@H]([C@@H](C)O)NC(=O)c2csc(n2)-c2cc(O)c(-c3nc(CNC(=O)CN4CCOCC4)cs3)nc2-c2csc(n2)[C@@H]2COC(=O)c3c4c5c(cccc5n3O)COC(=O)[C@@H](O[C@H]3C[C@](C)(O)[C@H](N(C)C)[C@H](C)O3)[C@@H](OC4)[C@H](NC(=O)c3csc1n3)c1nc(cs1)C(=O)N2 [Compound A] | 0.015 µg/mL (≈ 0.0101 µM) | 0.0038 µg/mL (≈ 0.00256 µM) | 0.015 µg/mL (≈ 0.0101 µM) | 0.0075 µg/mL (≈ 0.00506 µM)
0.06 µg/mL (≈ 0.0429 µM) | CO/C(C)=C1/NC(=O)[C@H]([C@@H](C)O)NC(=O)c2csc(n2)-c2cc(O)c(-c3nc(CNCCO)cs3)nc2-c2csc(n2)[C@@H]2COC(=O)c3c4c5c(cccc5n3O)COC(=O)[C@@H](O[C@H]3C[C@](C)(O)[C@H](N(C)C)[C@H](C)O3)[C@@H](OC4)[C@H](NC(=O)c3csc1n3)c1nc(cs1)C(=O)N2 [Compound B] | – | 0.0075 µg/mL (≈ 0.00536 µM) | 0.03 µg/mL (≈ 0.0215 µM) | 0.03 µg/mL (≈ 0.0215 µM)
